The text below walks through data of patent publication US5807981A (FibroGen Inc., priority 1995, dated 1998).

This assay addresses T1, C-proteinase (Homo sapiens, UniProt P13497).
T1 sequence (P13497 121-986): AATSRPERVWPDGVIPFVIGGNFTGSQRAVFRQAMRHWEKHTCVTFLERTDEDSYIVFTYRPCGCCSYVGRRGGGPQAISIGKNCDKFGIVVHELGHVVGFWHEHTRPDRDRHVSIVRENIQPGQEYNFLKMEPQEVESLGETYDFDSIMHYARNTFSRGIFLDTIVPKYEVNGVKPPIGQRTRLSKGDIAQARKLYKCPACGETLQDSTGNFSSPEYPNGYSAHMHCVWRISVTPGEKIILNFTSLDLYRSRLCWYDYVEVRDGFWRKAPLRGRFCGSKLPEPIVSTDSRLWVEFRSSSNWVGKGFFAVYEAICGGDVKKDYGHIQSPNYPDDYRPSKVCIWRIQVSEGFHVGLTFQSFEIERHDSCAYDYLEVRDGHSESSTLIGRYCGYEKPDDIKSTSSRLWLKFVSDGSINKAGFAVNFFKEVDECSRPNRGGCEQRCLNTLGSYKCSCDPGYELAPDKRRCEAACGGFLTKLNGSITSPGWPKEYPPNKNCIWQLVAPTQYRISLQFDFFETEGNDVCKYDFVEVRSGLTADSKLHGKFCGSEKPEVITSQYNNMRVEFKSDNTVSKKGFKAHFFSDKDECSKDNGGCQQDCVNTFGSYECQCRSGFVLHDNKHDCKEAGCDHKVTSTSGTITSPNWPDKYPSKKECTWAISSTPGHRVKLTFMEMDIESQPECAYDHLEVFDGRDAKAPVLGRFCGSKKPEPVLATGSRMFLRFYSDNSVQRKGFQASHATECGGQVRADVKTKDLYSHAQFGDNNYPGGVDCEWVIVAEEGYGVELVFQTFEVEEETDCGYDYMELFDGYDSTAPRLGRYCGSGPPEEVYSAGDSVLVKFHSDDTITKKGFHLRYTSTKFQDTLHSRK
In words: Cleavage of synthetic procollagen cleavage-site peptides by active C-proteinase. It is filed as biochemical. The note with it: for Cleavability: Table 1, cleavability of peptides resembling the C-proteinase cleavage site of procollagen; for cleavability by C-proteinase: truncated and extended peptides compared with original peptide SEQ ID NO:6. An excerpt: A variety of short peptides comprising five (5) to twelve (12) amino acids was synthesized and tested for cleavage by active C-proteinase.
First, four peptides, each comprising eight (8) amino acids corresponding to the cleavage region of several procollagens were synthesized. See, TABLE 1, SEQ ID NO:3, SEQ ID NO:4, SEQ ID NO:5, and SEQ ID NO:6. All four peptides were examined for cleavability by C-proteinase. […] Indeed, one would expect that recognition of the cleavage site depends on structural requirements which cannot be resembled by only eight (8) amino acids.
Second, a series of peptides was prepared based on the sequence of original peptide SEQ ID NO:6. Specifically, peptides were designed resembling the core of the peptide comprising SEQ ID NO:6, but with truncations of one, two and three amino acids from either side of the cleavage site. A further peptide was synthesized resembling two additional amino acids at both the N-terminus and C-terminus of the original peptide comprising SEQ ID NO:6.
Removing two or more amino acids from either end of the original SEQ ID NO:6 sequence, however, yielded a non-cleavable peptide (SEQ ID NOS:9, 10, 12, 13).

Residues, ends and D or L forms follow the SMILES beside them.

For the compound `CC(=O)N1CCC[C@H]1C(=O)N[C@@H](Cc1ccc(O)cc1)C(=O)N[C@@H](Cc1ccc(O)cc1)C(=O)NCC(=O)N[C@@H](CC(=O)O)C(=O)N[C@@H](CCC(=O)O)C(=O)N1CCC[C@H]1C(N)=O` [SEQ ID NO:8, Ac-PYYG-DEP-NH2] (Ac-PYYGDEP-NH2), the Cleavability entry is reported as “excellent” and the “cleavability by C-proteinase” value is given as “did not drastically alter its cleavability”.

For `CSCC[C@H](NC(=O)[C@@H]1CCCN1C(=O)[C@H](CCC(=O)O)NC(=O)[C@H](CC(=O)O)NC(=O)CNC(=O)[C@H](Cc1ccc(O)cc1)NC(C)=O)C(N)=O` [SEQ ID NO:12, Ac-YG-DEPM-NH2] (Ac-YGDEPM-NH2), the Cleavability entry is recorded as “none” and the “cleavability by C-proteinase” value was “non-cleavable”.

For the compound `CC(=O)N1CCC[C@H]1C(=O)N[C@@H](Cc1ccc(O)cc1)C(=O)N[C@@H](Cc1ccc(O)cc1)C(=O)NCC(=O)N[C@@H](CC(=O)O)C(=O)N[C@@H](CCC(=O)O)C(N)=O` [SEQ ID NO:9, Ac-PYYG-DE-NH2] (Ac-PYYGDE-NH2), the Cleavability result is given as “none” and the “cleavability by C-proteinase” value is “non-cleavable”.

Take `CC(=O)N[C@@H](Cc1ccccc1)C(=O)N[C@@H](Cc1ccc(O)cc1)C(=O)N[C@@H](CCCNC(=N)N)C(=O)N[C@@H](C)C(=O)N[C@@H](CC(=O)O)C(=O)N[C@@H](CCC(N)=O)C(=O)N1CCC[C@H]1C(=O)N[C@@H](CCCNC(=N)N)C(N)=O` [SEQ ID NO:4, Ac-FYRA-DQPR-NH2] (Ac-FYRADQPR-NH2): the Cleavability entry is recorded as “slight” and the “cleavability by C-proteinase” value is reported as “cleaved by C-proteinase”.

For the compound `CSCC[C@H](NC(=O)[C@@H]1CCCN1C(=O)[C@H](CCC(=O)O)NC(=O)[C@H](CC(=O)O)NC(=O)CNC(=O)[C@H](Cc1ccc(O)cc1)NC(=O)[C@H](Cc1ccc(O)cc1)NC(=O)[C@@H]1CCCN1C(=O)[C@H](C)NC(=O)[C@H](Cc1ccccc1)NC(C)=O)C(=O)N[C@@H](CC(=O)O)C(=O)N[C@@H](Cc1ccccc1)C(N)=O` [SEQ ID NO:7, Ac-FAPYYG-DEPMDF-NH2] (Ac-FAPYYGDEPMDF-NH2), the Cleavability entry is “excellent” and the “cleavability by C-proteinase” value is reported as “did not impact its cleavability”.

With `CC(=O)N1CCC[C@H]1C(=O)N[C@@H](Cc1ccc(O)cc1)C(=O)N[C@@H](Cc1ccc(O)cc1)C(=O)NCC(=O)N[C@@H](CC(=O)O)C(N)=O` [SEQ ID NO:10, Ac-PYYG-D-NH2] (Ac-PYYGD-NH2), the Cleavability result is “none” and the “cleavability by C-proteinase” value was “non-cleavable”.
